Data published in patent US20260001876A1, “Compounds and Their Use as PDE4 Activators” (Mironid Limited, priority 2022, published 2026).

test system: m-IMCD3 cells; assay: Inhibition of PGE2-stimulated in vitro cyst formation in m-IMCD3 cells (3D culture); format: cell-based; details: Mus musculus, mIMCD3, 144 h; 3 μM; mean cyst area; 100% for (DMSO + PGE2) and 0% for DMSO control; 6 days of culture; read-out: % Cyst area* after incubation with 3 μM test compound
Protocol: HEK 293 and MDCK cells (Public Health England, Cell Culture Collections) were maintained in Dulbecco's Modified Eagle's Medium (DMEM) supplemented with 10% (v/v) fetal bovine serum (FBS) (Seralab), 2 mM L-glutamine and 100 U/mL penicillin streptomycin cocktail (ThermoFisher); termed complete media. Clonal HEK 293 cell lines were maintained in complete media supplemented with 0.6 mg/ml G418 (Enzo Life Sciences). Mouse inner medullary collecting duct (m-IMCD3) cells [American Type Culture Collection (ATCC)] were maintained in media consisting of DMEM/Hams F-12 50/50 Mix (DMEM F12; Corning) supplemented with penicillin streptomycin cocktail (100 U/mL) and FBS (10% v/v) (DMEM F12-10% FBS).
Experiment 3: Inhibition of In Vitro Cyst Formation in m-IMCD3 Cells Treated with PDE4 Long Form Activators
The mouse Inner Medullary Collecting Duct cell line (m-IMCD3) spontaneously forms cystic spheroids in 3D culture with a Type 1 collagen/Matrigel extracellular matrix. This process can be stimulated with agents which raise intracellular cAMP and is used as an in vitro model for the formation of cystic structures in the kidneys of patients with ADPKD.
Rat Collagen I (Fisher Scientific) is prepared on ice by neutralising with 1M NaOH and diluting with a 2× volume of DMEM/F12+10% FBS. This is mixed 1:1.1 with ice cold Matrigel (Corning) for coating plates (coating mix), and 1:0.93 with Matrigel for cell plating (plating mix).
The assay is conducted in the wells of a 96-well plate culture dish using a total volume of 130 μL of collagen/Matrigel/DMEM F12-10% FBS suspension in growth media for each matrix plug per individual well. Initially, 30 μL of collagen/Matrigel/DMEM F12-10% FBS (coating mix) is added into the well of a 96 well plate and the collagen is set to a gel by incubating at 37° C. for at least 15 minutes. A second layer of 100 μL collagen/Matrigel suspension (plating mix) containing m-IMCD3 cells (2.75×10^6 m-IMCD3 cells per 96-well plate) is layered over the coating mix and the collagen/Matrigel/cell mix again set to a gel by incubating at 37° C. Cell cultures are maintained at 37° C. in an atmosphere of 5% CO2, 95% air.
Between 18 and 24 h after plating, test compound(s) as DMSO stock solutions [0.1% (v/v) final DMSO concentration] and PGE2 (100 nM final concentration) in DMEM F12-10% FBS are added in quadruplicate wells per condition. Media, together with the test compound and PGE2 are replenished after 2 or 3 days. After 6 days of culture z stack images of the wells are captured using the Nikon Eclipse Ti2-E microscope. Nikon General Analysis software is used to measure the following parameters in each well: the mean cyst area, the number of cysts, and the total cyst area.
PDE4 long form activators inhibited in vitro cyst formation in m-IMCD3 cells. Data are shown in Table 4 as mean cyst area (%), compared to 100% for (DMSO+PGE2) and 0% for DMSO control.

Compound | activity at 3 µM [%]
O=C(Cc1ccccc1)N1CCc2nc(N3CC4CCC(C3)N4)ncc2C1 [Example 135, 1-(2-(3,8-diazabicyclo[3.2.1]octan-3-yl)-7,8-dihydropyrido[4,3-d]pyrimidin-6(5H)-yl)-2-phenylethan-1-one] | -5
O=C(CC1CCCC1)N1CCc2cnc(N3C4CCC3CNC4)nc2C1 [Example 148, 1-(2-(3,8-diazabicyclo[3.2.1]octan-8-yl)-5,8-dihydropyrido[3,4-d]pyrimidin-7 (6H)-yl)-2-cyclopentylethan-1-one] | 7
O=C([C@H](O)C1CCCC1)N1CCc2nc(N3C4CCC3CNC4)ccc2C1 [Example 124, (2R)-1-(2-(3,8-diazabicyclo[3.2.1]octan-8-yl)-7,8-dihydro-1,6-naphthyridin-6(5H)-yl)-2-cyclopentyl-2-hydroxyethan-1-one] | 0
Cc1ncccc1-c1ccc2c(n1)CCN(C(=O)CC1CCCC1)C2 [Example 181, 2-cyclopentyl-1-(2-(2-methylpyridin-3-yl)-7,8-dihydro-1,6-naphthyridin-6(5H)-yl)ethan-1-one] | 26
CCN1CC2CCC(C1)N2c1ccc2c(n1)CCN(C(=O)N[C@H]1CCOc3ccccc31)C2 [Example 167, N—((S)-chroman-4-yl)-2-(3-ethyl-3,8-diazabicyclo[3.2.1]octan-8-yl)-7,8-dihydro-1,6-naphthyridine-6(5H)-carboxamide] | -8
COCCCN1CC2CCC(C1)N2c1ccc2c(n1)CCN(C(=O)COc1ccc(F)cc1)C2 [Example 174, 2-(4-fluorophenoxy)-1-(2-(3-(3-methoxypropyl)-3,8-diazabicyclo[3.2.1]octan-8-yl)-7,8-dihydro-1,6-naphthyridin-6(5H)-yl)ethan-1-one] | 1
O=C(CC1CCCC1)N1CCc2nc(N3CC4CCC(C3)N4)ccc2C1 [Example 154, 1-(2-(3,8-diazabicyclo[3.2.1]octan-3-yl)-7,8-dihydro-1,6-naphthyridin-6(5H)-yl)-2-cyclopentylethan-1-one] | -6
O=C(Cc1ccc(F)cc1)N1CCc2nc(N3CCNCC3)ccc2C1 [Example 176, 2-(4-fluorophenyl)-1-(2-(piperazin-1-yl)-7,8-dihydro-1,6-naphthyridin-6(5H)-yl)ethan-1-one] | -2
CC(C)[C@H](C)C(=O)N1Cc2ccc(N3C4CCC3CNC4)nc2C1 [Example 128, (2S)-1-(2-(3,8-diazabicyclo[3.2.1]octan-8-yl)-5,7-dihydro-6H-pyrrolo[3,4-b]pyridin-6-yl)-2,3-dimethylbutan-1-one] | 3

same assay, conditions: Mus musculus, mIMCD3, 144 h; 10 μM; mean cyst area; 100% for (DMSO + PGE2) and 0% for DMSO control; 6 days of culture; read-out: % Cyst area* after incubation with 10 μM test compound

Compound | activity at 10 µM [%]
O=C(CC1CCCC1)N1CCc2nc(N3CCN[C@H](CO)C3)ccc2C1 (single isomer, unassigned) [Example 132] | -4
CC(C)CC(=O)N1CCc2nc(N3C4CCC3CNC4)ccc2C1 [Example 43, 1-(2-(3,8-diazabicyclo[3.2.1]octan-8-yl)-7,8-dihydro-1,6-naphthyridin-6(5H)-yl)-3-methylbutan-1-one] | -4
O=C(CC1CCCC1)N1CCc2nc(N3CCN[C@@H](CO)C3)ccc2C1 (single isomer, unassigned) [Example 131] | -4
O=C(NC1CCC(F)(F)CC1)N1Cc2ccc(N3C4CCC3CNC4)nc2C1 [Example 89, 2-(3,8-diazabicyclo[3.2.1]octan-8-yl)-N-(4,4-difluorocyclohexyl)-5,7-dihydro-6H-pyrrolo[3,4-b]pyridine-6-carboxamide] | 2
O=C(CC1CCCC1)N1CCc2nc(N3C4CCC3CNC4)ccc2C1 [Example 39, 1-(2-(3,8-diazabicyclo[3.2.1]octan-8-yl)-7,8-dihydro-1,6-naphthyridin-6(5H)-yl)-2-cyclopentylethan-1-one] | 5
O=C(NC1CCC(F)(F)CC1)N1CCc2nc(N3C4CCC3CNC4)ccc2C1 [Example 59, 2-(3,8-diazabicyclo[3.2.1]octan-8-yl)-N-(4,4-difluorocyclohexyl)-7,8-dihydro-1,6-naphthyridine-6(5H)-carboxamide] | -4
